The source of these data is US20200298233A1, “MICROFLUIDIC PAPER CHIP FOR DETECTING MICRO-ORGANISM, METHOD FOR PREPARING THE SAME AND METHOD FOR DETECTING MICRO-ORGANISM USING THE SAME” (BIOMAX CO., LTD., priority 2017, published 2020).

The test system of one experiment is Escherichia coli O157. The conditions noted are these: chromogenic reagent terminal concentration 10 mM, 30 minutes at 37° C.
Experiment [1] deals with Vibrio vulnificus. Kind of experiment: Coloring reaction test of chromogenic reagents, 96 well plate. Format: biochemical. The conditions noted are these: chromogenic reagent terminal concentration 10 mM, 30 minutes at 37° C.
Experiment [2] has as its system Staphylococcus aureus. The description is as above. The conditions noted are these: chromogenic reagent terminal concentration 10 mM, 30 minutes at 37° C. Format: biochemical.
A further experiment has as its system Escherichia coli. Conditions: chromogenic reagent terminal concentration 10 mM, 30 minutes at 37° C.
Experiment [3] concerns Listeria monocytogenes. Kind of experiment: Bacterial lysis efficacy by measuring optical density (OD). Format: cell-based.
Experiment [4] deals with 5 food risk microorganisms. Kind of experiment: Bacterial lysis efficacy by optical density, overall statements. Conditions: detergents at 1%, tables 3 and 4. Type of experiment: cell-based.
For experiment [5], the system named is Vibrio vulnificus. In words: Bacterial lysis efficacy by measuring optical density (OD).
The next experiment deals with Salmonella spp. The experiment is described as above.
Another experiment relates to Esherichia coli O157. Described as above. Format: cell-based, Escherichia coli O157.
Experiment [6] concerns Staphylococcus aureus. The experiment is described as above. Type of experiment: cell-based.
Experiment [7] concerns Listeria monocytogenes. In words: Coloring reaction test of chromogenic reagents, 96 well plate. Format: biochemical. The conditions noted are these: chromogenic reagent terminal concentration 10 mM, 30 minutes at 37° C.

Values joined by “and” are separate entries in the source; they are usually repeats but may differ in a detail not shown here. Equal values may be shown once.

As to “5-Bromo-6-chloro-3-indoxyl-beta-D-galactopyranoside [Magenta-beta-galactopyranoside]”, the coloring reaction entry in the experiment on Escherichia coli O157, with Vibrio vulnificus [1] and in the experiment on Staphylococcus aureus [2] was “unique coloring reaction” in each case.
For `O.O.O.O=C([O-])[C@H]1O[C@@H](Oc2c[nH]c3ccc(Br)c(Cl)c23)[C@H](O)[C@@H](O)[C@@H]1O.[Na+]` [X-beta-glucuronide, 5-Bromo-4-chloro-3-indoxyl-beta-D-glucuronic acid Sodium salt trihydrate], the coloring reaction result in the experiment with Escherichia coli was “unique coloring reaction”.
Regarding `CCCCCCCCCCCCCC[N+](C)(C)CCCS(=O)(=O)[O-]` [SB3-14], the Optical density is 0.6579 and 0.6484 and 0.6514 with Listeria monocytogenes [3] (Table 7, additives to 1% SB3-14, initial O.D = 1.2010); 0.7673 and 0.7609 and 0.7595 with Listeria monocytogenes [3] (Table 8, C7BZO concentrations added to 1% SB3-14, initial O.D = 1.1086); 0.9540 and 0.9653 and 0.9757 in the experiment with Listeria monocytogenes [3] (detergent 0.1%, initial O.D = 0.8336); 0.8154 and 0.8244 and 0.8145 in the experiment with Listeria monocytogenes [3] (detergent 0.5%, initial O.D = 0.8336); 0.5993 and 0.5050 and 0.5950 with Listeria monocytogenes [3] (detergent 1%, initial O.D = 0.8336); 0.9852 and 0.9975 and 0.9807 in the experiment with Listeria monocytogenes [3] (detergent 2%, initial O.D = 0.8336). Besides, the Optical density with Listeria monocytogenes [3] (detergent 3%, initial O.D = 0.8336) was 0.7006 and 0.6813 and 0.6884; in the experiment with Listeria monocytogenes [3] (detergent 5%, initial O.D = 0.8336), 0.7960 and 0.7828 and 0.7815; in the experiment with Vibrio vulnificus [5] (Table 7, additives to 1% SB3-14, initial O.D = 0.5670), 0.0800 and 0.0798 and 0.0787; in the experiment with Vibrio vulnificus [5] (Table 8, C7BZO concentrations added to 1% SB3-14, initial O.D = 1.0272), 0.2733 and 0.2706 and 0.2737; with Vibrio vulnificus [5] (detergent 0.1%, initial O.D = 0.6143, listed as SB-14) it was 0.1924 and 0.1953 and 0.1984; with Vibrio vulnificus [5] (detergent 0.5%, initial O.D = 0.6143, listed as SB-14), 0.0679 and 0.0739 and 0.0695. Moreover, the Optical density was 0.0601 and 0.0595 and 0.0588 in the experiment with Vibrio vulnificus [5] (detergent 1%, initial O.D = 0.6143, listed as SB-14); 0.0445 and 0.0393 and 0.0447 in the experiment with Vibrio vulnificus [5] (detergent 2%, initial O.D = 0.6143, listed as SB-14); 0.0453 and 0.0547 and 0.0528 in the experiment on Vibrio vulnificus [5] (detergent 3%, initial O.D = 0.6143, listed as SB-14); 0.0310 and 0.0329 and 0.0320 in the experiment with Vibrio vulnificus [5] (detergent 5%, initial O.D = 0.6143, listed as SB-14); 0.3597 and 0.3519 and 0.3447 in the experiment on Salmonella spp. (Table 7, additives to 1% SB3-14, initial O.D = 1.0894); 0.3640 and 0.3631 and 0.3627 with Salmonella spp. (Table 8, C7BZO concentrations added to 1% SB3-14, initial O.D = 1.3421). Further, the Optical density in the experiment with Salmonella spp. (detergent 0.1%, initial O.D = 1.4448) was 0.5393 and 0.5423 and 0.5520; in the experiment on Salmonella spp. (detergent 0.5%, initial O.D = 1.4448) it was 0.5807 and 0.5788 and 0.5796; with Salmonella spp. (detergent 1%, initial O.D = 1.4448), 0.4105 and 0.4095; with Salmonella spp. (detergent 2%, initial O.D = 1.4448) it was 0.5727 and 0.5754 and 0.5776; with Salmonella spp. (detergent 3%, initial O.D = 1.4448), 0.5196 and 0.5221; with Salmonella spp. (detergent 5%, initial O.D = 1.4448) it was 0.4419 and 0.4454 and 0.4443. The Optical density was 0.1112 and 0.1137 and 0.1126 with Esherichia coli O157 (Table 7, additives to 1% SB3-14, initial O.D = 1.0911); 0.1264 and 0.1254 and 0.1241 in the experiment with Esherichia coli O157 (Table 8, C7BZO concentrations added to 1% SB3-14, initial O.D = 1.0829); 0.4641 and 0.4483 and 0.4351 in the experiment on Esherichia coli O157 (detergent 0.1%, initial O.D = 0.8139); 0.2262 and 0.2254 and 0.2230 in the experiment with Esherichia coli O157 (detergent 0.5%, initial O.D = 0.8139); 0.0270 and 0.0238 and 0.0244 with Esherichia coli O157 (detergent 1%, initial O.D = 0.8139); 0.4447 and 0.4452 and 0.4459 with Esherichia coli O157 (detergent 2%, initial O.D = 0.8139). Besides, the Optical density in the experiment on Esherichia coli O157 (detergent 3%, initial O.D = 0.8139) was 0.6228 and 0.6275 and 0.6225; with Esherichia coli O157 (detergent 5%, initial O.D = 0.8139), 0.6731 and 0.6746 and 0.6733; with Staphylococcus aureus [6] (Table 7, additives to 1% SB3-14, initial O.D = 1.2274), 0.8154 and 0.8152 and 0.8153; with Staphylococcus aureus [6] (Table 8, C7BZO concentrations added to 1% SB3-14, initial O.D = 1.1374), 0.8664 and 0.8654 and 0.8652; in the experiment with Staphylococcus aureus [6] (detergent 0.1%, initial O.D = 1.1877), 0.9052 and 0.9069 and 0.9087; in the experiment on Staphylococcus aureus [6] (detergent 0.5%, initial O.D = 1.1877), 1.1084 and 1.1070 and 1.1092. Also, the Optical density in the experiment on Staphylococcus aureus [6] (detergent 1%, initial O.D = 1.1877) is 0.5341 and 0.5322; in the experiment with Staphylococcus aureus [6] (detergent 2%, initial O.D = 1.1877) it was 0.9473 and 0.9470 and 0.9461; in the experiment on Staphylococcus aureus [6] (detergent 3%, initial O.D = 1.1877), 1.0432 and 1.0429 and 1.0502; in the experiment on Staphylococcus aureus [6] (detergent 5%, initial O.D = 1.1877), 0.8999 and 0.8987 and 0.8865. Also, the bacterial lysis efficacy result in experiment [4] was “best bacterial lysis efficacy”.
Take “Aldol ® 518 myo-inositol-1-phosphate [Aldol-myo-inositol-1-phosphate]”: in the experiment with Listeria monocytogenes [7], the coloring reaction result is reported as “unique coloring reaction”.
